This is an account of results in US10024845B2, “Methods for determining modulators of insect transient receptor potential V (TRPV) channel” (BASF SE, priority 2013, dated 2018).

Entries after “also recorded” stand apart in the source; their conditions may differ. Like-named read-outs stand apart in the source and are kept apart here.

Assay [1] concerns parental CHO-K1 cells. The assay is classed as cell-based, hamster.
Assay [2] deals with insect TRPV channel (Drosophila Nanchung and Inactive co-expressed). The assay is classed as cell-based. Particulars: for Response of cells (fluorescence units), Insect TRPV cells: single high dose 20 μM; for Ca2+ mobilization in cells co-expressing Nan and Iav (insect TRPV channel), in words: FLUO4 probe; for Dependence of the cell response on Ca2+ in the extracellular media: insect TRPV-expressing cells; for Inhibition of stimulation of the insect TRPV channel: cell-impermeable ion channel blocker. (In general: A change in cytosolic calcium serves as a functional read-out for many receptors and channels.)

Assay [3] addresses mouse TRPV4 (mTRPV4) (Mus musculus, UniProt Q9EPK8). Put plainly: Ca2+ mobilization (FLUO4, FLIPR) in CHO-K1 cells expressing mTRPV4. The assay is classed as cell-based. The note with it: for Ca2+ mobilization in cells expressing mTRPV4, in words: FLUO4 probe.
Setting [4] is: single high dose 20 μM, parental CHO-K1 cells.
The mark [5] stands for this setting: CHO-K1 cells expressing insect TRPV.
Setting [6] is: single high dose 20 μM, CHO-K1 cells expressing mTRPV4.
The mark [7] stands for this setting: listed as metabolite B of Pyrifluquinazon.

Chain of mouse TRPV4 (mTRPV4) (Q9EPK8 whole entry): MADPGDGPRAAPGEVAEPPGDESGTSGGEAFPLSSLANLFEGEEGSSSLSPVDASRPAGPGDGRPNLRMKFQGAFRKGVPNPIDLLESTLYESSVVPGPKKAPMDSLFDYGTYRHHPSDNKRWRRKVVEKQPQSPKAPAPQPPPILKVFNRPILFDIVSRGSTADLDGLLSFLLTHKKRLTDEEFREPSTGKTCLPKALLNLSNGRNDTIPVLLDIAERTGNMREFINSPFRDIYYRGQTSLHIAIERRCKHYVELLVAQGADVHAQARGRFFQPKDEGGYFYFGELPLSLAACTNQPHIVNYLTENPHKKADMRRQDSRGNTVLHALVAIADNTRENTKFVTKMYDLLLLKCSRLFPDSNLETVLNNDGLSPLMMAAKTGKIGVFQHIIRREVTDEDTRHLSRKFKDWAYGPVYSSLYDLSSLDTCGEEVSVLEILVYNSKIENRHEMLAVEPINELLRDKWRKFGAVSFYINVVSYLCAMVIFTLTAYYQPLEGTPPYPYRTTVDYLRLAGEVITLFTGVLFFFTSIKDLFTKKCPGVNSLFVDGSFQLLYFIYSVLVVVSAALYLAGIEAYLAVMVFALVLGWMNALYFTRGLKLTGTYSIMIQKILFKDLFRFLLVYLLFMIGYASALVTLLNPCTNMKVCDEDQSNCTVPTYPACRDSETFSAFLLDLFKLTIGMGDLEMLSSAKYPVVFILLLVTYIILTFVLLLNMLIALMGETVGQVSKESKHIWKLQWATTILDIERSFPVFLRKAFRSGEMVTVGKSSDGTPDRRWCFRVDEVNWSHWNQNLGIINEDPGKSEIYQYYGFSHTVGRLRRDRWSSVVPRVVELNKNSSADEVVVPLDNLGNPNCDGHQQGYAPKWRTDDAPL

Take `CC(=O)OCC[N+](C)(C)C` [Acetylcholine]: in assay [1] (setting [4]), the “Response of cells (fluorescence units), Parental CHO cells” value (“Response of cells … Parental CHO cells” for short) is reported as 797 fluorescence units. Also, the “Response of cells (fluorescence units), Insect TRPV cells” value (shortened to “Response of cells … Insect TRPV cells”) in assay [2] (setting [5]) amounted to 250 fluorescence units.
As for `Cc1ccc(/N=C/N(C)/C=N/c2ccc(C)cc2C)c(C)c1` [Amitraz], the “Response of cells (fluorescence units), mTRPV4 cells” value (shortened to “Response of cells … mTRPV4 cells”) in assay [3] (setting [6]) worked out at 25 fluorescence units. The “Response of cells … Parental CHO cells” value in assay [1] (setting [4]) is 50 fluorescence units. Further, the “Response of cells … Insect TRPV cells” value in assay [2] (setting [5]) stood at 58 fluorescence units.
Regarding `Clc1cccc(Cl)c1N=C1NCCN1` [Clonidine], the “Response of cells … mTRPV4 cells” value in assay [3] is 62 fluorescence units. Also, the “Response of cells … Parental CHO cells” value in assay [1] is listed as 136 fluorescence units. In assay [2] (setting [5]), the “Response of cells … Insect TRPV cells” value was determined as 135 fluorescence units.
On to `ClC1=C(Cl)[C@]2(Cl)[C@@H]3[C@@H]4C[C@@H]([C@H]5O[C@@H]45)[C@@H]3[C@@]1(Cl)C2(Cl)Cl` [Dieldrin], for which the “Response of cells … mTRPV4 cells” value in assay [3] (setting [6]) is listed as 52 fluorescence units. The “Response of cells … Parental CHO cells” value in assay [1] (setting [4]) worked out at 73 fluorescence units. The “Response of cells … Insect TRPV cells” value in assay [2] (setting [5]) is 78 fluorescence units.
With `CN/C(=N/CC1CCOC1)N[N+](=O)[O-]` (centres unmarked) [Dinotefuran], in assay [3] (setting [6]), the “Response of cells … mTRPV4 cells” value worked out at 23 fluorescence units. In assay [1], the “Response of cells … Parental CHO cells” value worked out at 23 fluorescence units. For the same compound, in assay [2] (setting [5]), the “Response of cells … Insect TRPV cells” value stood at 48 fluorescence units.
Turning to `Clc1ccc(C2CC3CCC2N3)cn1` (centres unmarked) [Epibatidine], in assay [3] (setting [6]), the “Response of cells … mTRPV4 cells” value is 63 fluorescence units. Further, the “Response of cells … Parental CHO cells” value in assay [1] (setting [4]) is 49 fluorescence units. The “Response of cells … Insect TRPV cells” value in assay [2] ([…]) is listed as 70 fluorescence units.
On to `CC[S+]([O-])c1c(C#N)nn(-c2c(Cl)cc(C(F)(F)F)cc2Cl)c1N` (centres unmarked) [Ethiprole], for which, in assay [3] (setting [6]), the “Response of cells … mTRPV4 cells” value is 113 fluorescence units. Besides, the “Response of cells … Parental CHO cells” value in assay [1] (setting [4]) turned out to be 357 fluorescence units. In addition, in assay [2] (setting [5]), the “Response of cells … Insect TRPV cells” value was determined as 154 fluorescence units.
For `N#Cc1nn(-c2c(Cl)cc(C(F)(F)F)cc2Cl)c(N)c1[S+]([O-])C(F)(F)F` (centres unmarked) [Fipronil], in assay [3] (setting [6]), the “Response of cells … mTRPV4 cells” value stood at 60 fluorescence units. In addition, the “Response of cells … Parental CHO cells” value in assay [1] (setting [4]) is reported as 240 fluorescence units. Moreover, the “Response of cells … Insect TRPV cells” value in assay [2] (setting [5]) was determined as 133 fluorescence units.
Turning to `NCCCC(=O)O` [GABA], in assay [3] (setting [6]), the “Response of cells … mTRPV4 cells” value turned out to be 43 fluorescence units. Moreover, the “Response of cells … Parental CHO cells” value in assay [1] (setting [4]) was 100 fluorescence units. Further, in assay [2] (setting [5]), the “Response of cells … Insect TRPV cells” value is reported as 68 fluorescence units.
Regarding `CC(C)C[C@H](NC(=O)c1cc2ccccc2s1)C(=O)N1CCN(C(=O)[C@H](CO)NS(=O)(=O)c2ccc(Cl)cc2Cl)CC1` [GSK1016790A, N-((1 S)-1-{[4-((2 S)-2-{[(2,4-dichlorophenyl)sulfonyl]amino}-3-hydroxypropanoyl)-1-piperazinyl]carbonyl}-3-methylbutyl)-1-benzothiophene-2-carboxamide], the “Ca2+ mobilization in cells expressing mTRPV4, in words” value in assay [3] is “induced strong Ca^2+ mobilization response; also recorded: strong activation”. The “Response of cells … mTRPV4 cells” value in assay [3] (setting [6]) came out at 2017 fluorescence units. Also, in assay [1] (setting [4]), the “Response of cells … Parental CHO cells” value came out at 71 fluorescence units. In assay [2] (setting [5]), the “Response of cells … Insect TRPV cells” value is recorded as 53 fluorescence units.
On to `O=[N+]([O-])NC1=NCCN1Cc1ccc(Cl)nc1` [Imidacloprid], for which, in assay [3] (setting [6]), the “Response of cells … mTRPV4 cells” value came out at 16 fluorescence units. Also, in assay [1] (setting [4]), the “Response of cells … Parental CHO cells” value was found to be 69 fluorescence units. Further, the “Response of cells … Insect TRPV cells” value in assay [2] (setting [5]) is on record as 42 fluorescence units.
For `Cl[C@H]1[C@H](Cl)[C@@H](Cl)[C@@H](Cl)[C@H](Cl)[C@H]1Cl` [Lindane] the same measures were 12 fluorescence units, 19 fluorescence units and 35 fluorescence units.
With `CN1CCN2c3ccccc3Cc3ccccc3C2C1` (centres unmarked) [Miansenn], the “Response of cells … mTRPV4 cells” value in assay [3] (setting [6]) was 30 fluorescence units. Besides, the “Response of cells … Parental CHO cells” value in assay [1] (setting [4]) amounted to 110 fluorescence units. In assay [2] ([…]), the “Response of cells … Insect TRPV cells” value is recorded as 86 fluorescence units.
`c1ccc2c(CC3=NCCN3)cccc2c1` [Naphazoline]: in assay [3] (setting [6]), the “Response of cells … mTRPV4 cells” value was 11 fluorescence units. The “Response of cells … Parental CHO cells” value in assay [1] (setting [4]) turned out to be 50 fluorescence units. Moreover, in assay [2] (setting [5]), the “Response of cells … Insect TRPV cells” value is listed as 31 fluorescence units.
For the compound `CN1CCCC1c1cccnc1` (centres unmarked) [Nicotine], the “Response of cells … mTRPV4 cells” value in assay [3] is given as 8 fluorescence units. In addition, the “Response of cells … Parental CHO cells” value in assay [1] amounted to 65 fluorescence units. The “Response of cells … Insect TRPV cells” value in assay [2] (setting [5]) is 81 fluorescence units.
Consider `NCC(O)c1ccc(O)cc1` (centres unmarked) [Octopamine], for which the “Response of cells … mTRPV4 cells” value in assay [3] (setting [6]) was found to be 20 fluorescence units. Besides, the “Response of cells … Parental CHO cells” value in assay [1] (setting [4]) is 45 fluorescence units. Moreover, the “Response of cells … Insect TRPV cells” value in assay [2] (setting [5]) is 66 fluorescence units.
On to `O=C1Nc2ccc(C(F)(C(F)(F)F)C(F)(F)F)cc2CN1NCc1cccnc1` [Pyrifluquinazon metabolite B], for which, in assay [3], the “Potency against mouse TRPV4 relative to Drosophila TRPV channel” value is around 100 fold and the “Ca2+ mobilization in cells expressing mTRPV4, in words” value was “weak activation”. The “Ca2+ mobilization in cells expressing mTRPV4, in words” value in assay [3] (setting [7]) is listed as “did trigger Ca^2+ mobilization”. In addition, the “Response of cells … mTRPV4 cells” value in assay [3] (setting [6]) was 346 fluorescence units. Further, the “Response of cells … Parental CHO cells” value in assay [1] (setting [4]) was 40 fluorescence units. Also, in assay [2], the “Potency relative to the parental compound pyrifluquinazon” value was “about 100 fold”; the “Ca2+ mobilization in cells co-expressing Nan and Iav (insect TRPV channel), in words” value is given as “activation of insect TRPV channel”; the “Dependence of the cell response on Ca2+ in the extracellular media” value is given as “requires presence of Ca^2+ in the extracellular media”. Moreover, in assay [2] (setting [7]), the “Ca2+ mobilization in cells co-expressing Nan and Iav (insect TRPV channel), in words” value was “triggered Ca^2+ mobilization”. Also, the “Response of cells … Insect TRPV cells” value in assay [2] (setting [5]) was 538 fluorescence units.
As to `N.N.N.N.N.N.N.N.N.N.N.N.N.N.[Cl-].[Cl-].[Cl-].[Cl-].[Cl-].[Cl-].[O-2].[O-2].[Ru+3].[Ru+3].[Ru+4]` [Ruthenium red], the “Inhibition of stimulation of the insect TRPV channel” value is listed as “inhibited” in assay [2] and “inhibition of the response” in assay [2] (listed as ruthenium red).
Consider `CNC(=O)c1cc(Cl)cc(C)c1NC(=O)c1cc(Br)nn1-c1ncccc1Cl` [Rynaxapyr], for which, in assay [3] (setting [6]), the “Response of cells … mTRPV4 cells” value worked out at 74 fluorescence units. In assay [1] (setting [4]), the “Response of cells … Parental CHO cells” value is given as 93 fluorescence units. In addition, in assay [2] (setting [5]), the “Response of cells … Insect TRPV cells” value is 43 fluorescence units.
The corresponding values for `N#C/N=C1\SCCN1Cc1ccc(Cl)nc1` [Thiacloprid] are 16 fluorescence units, 29 fluorescence units and 36 fluorescence units.
Turning to `CC1=NNC(=O)N(/N=C/c2cccnc2)C1` [pymetrozine], the “Ca2+ mobilization in cells expressing mTRPV4, in words” value in assay [3] (listed as Pymetrozine) is “had no effect”. The “Ca2+ mobilization in cells co-expressing Nan and Iav (insect TRPV channel), in words” value in assay [2] is reported as “triggered Ca^2+ mobilization; also recorded: activation of insect TRPV channel”; in assay [2] (listed as Pymetrozine), “triggered Ca^2+ mobilization”.
With `CC(=O)N1C(=O)N(NCc2cccnc2)Cc2cc(C(F)(C(F)(F)F)C(F)(F)F)ccc21` [pyrifluquinazon], in assay [2], the “Ca2+ mobilization in cells co-expressing Nan and Iav (insect TRPV channel), in words” value is given as “triggered Ca^2+ mobilization”; the “Dependence of the cell response on Ca2+ in the extracellular media” value is on record as “absolutely dependent on the presence of Ca^2+ in the extracellular media”.
Consider Abamectin, for which, in assay [3] (setting [6]), the “Response of cells … mTRPV4 cells” value is 30 fluorescence units. In addition, the “Response of cells … Parental CHO cells” value in assay [1] (setting [4]) worked out at 52 fluorescence units. For the same compound, the “Response of cells … Insect TRPV cells” value in assay [2] (setting [5]) turned out to be 49 fluorescence units.
Ryanodine: in assay [3] (setting [6]), the “Response of cells … mTRPV4 cells” value came out at 19 fluorescence units. Besides, in assay [1] (setting [4]), the “Response of cells … Parental CHO cells” value turned out to be 75 fluorescence units. Further, the “Response of cells … Insect TRPV cells” value in assay [2] ([…]) is listed as 53 fluorescence units.
